Here are results for 19 compounds from patent publication US20220194938A1, “NOVEL COMPOUNDS AND PHARMACEUTICAL COMPOSITIONS THEREOF FOR THE TREATMENT OF INFLAMMATORY DISORDERS” (GALAPAGOS NV, priority 2019, published 2022).

A short description of the data set: Thermodynamic solubility. As to conditions: 37° C.; for solubility thermodynamic at 24 h: thermodynamic from solid. In kind it is physicochemical. An excerpt:
4.2. Thermodynamic Solubility
Poor solubility, in particular poor thermodynamic solubility can limit the absorption of compounds from the gastrointestinal tract which in turn may reduce oral bioavailability.
Thermodynamic solubility investigates the solubility of a compound as a saturated solution in equilibrium, by opposition to kinetic solubility, which measures the solubility of a metastable solution where supersaturation may occur and provide over estimation of the actual solubility of the compound. (Klein 2010)
4.2.1. Thermodynamic Solubility—Protocol 1
In a 8 mL glass vial, 1-2 mg of dry matter of compound are added and stirred with the suitable buffers (Fed State Simulated Intestine Fluid, FeSSIF, or Fasted State Simulated Intestine Fluid, FaSSIF, or Fasted State Simulated Gastric Fluid, FaSSGF, or phosphate buffer pH 7.4) for 24 h at r.t. (for the buffer pH 7.4) or 37° C. (for the GI fluids). The concentration of the mixture is 1 mg/mL.
A volume of 500 μL are sampled, centrifuged for 10 min at 10 000 rpm and filtered. The samples are diluted in duplicates in DMSO (F100 and F10). Then, a final dilution (F100) in 80/20 H2O/MeCN containing the internal standard (warfarin) is used for LCMS-MS analysis.
A standard curve is made starting from a 200,000 ng/mL stock in DMSO, freshly prepared from dry matter. Then, successive concentrations at […], 1,000, 200 and 75 ng/mL in DMSO are prepared by using the Tecan robot.
Two quality control samples are made: one of 10,000 ng/mL and one of 500 ng/mL in DMSO, also starting from the DMSO working stock solution at 200,000 ng/mL.
The standard curve and quality controls are diluted a F100 in 80/20 H2O/MeCN (with internal standard) and analyzed on LC/MS-MS (API4000 or API5500).
The samples are analyzed on LC-MS with a flow rate of 0.6 mL/min. The mobile phase A is 0.1% formic acid in water and the mobile phase B is 0.1% formic acid in MeCN. The sample is run under positive or negative ion spray on Pursuit C18-5 μm (2.0×20 mm) column, from Agilent.
The peak areas of the standard curve are plotted in a graph and a linear or polynomial of the second order equation is used to calculate the unknown concentrations of the test compound.
4.2.2. Thermodynamic Solubility—Protocol 2
In an 8 mL glass vial, 1-2 mg of dry matter of compound were added and stirred with the suitable buffers (Fed State Simulated Intestine Fluid, FeSSIF, or Fasted State Simulated Intestine Fluid, FaSSIF, or Fasted State Simulated Gastric Fluid, FaSSGF, or phosphate buffer pH 7.4) for 24 h at r.t. (for the buffer pH 7.4) or 37° C. (for the GI fluids). The concentration of the mixture was 1 mg/mL.
A volume of 1000 μL were sampled, centrifuged for 10 min at 10 000 rpm and 500 μL of the supernatant were filtered on captiva plate. The samples were diluted in duplicates in DMSO (F100 and F10). Then, a final dilution (F100) in 80/20 H2O/MeCN containing the internal standard (warfarin) was used for LCMS-MS analysis.
A standard curve was made starting from a 40,000 ng/mL stock in DMSO, freshly prepared from dry matter. Then, successive concentrations at 15,000, 11,000, 6,000, 2,500, 1,000, 375, 150 and 75 ng/mL in DMSO were prepared.
Three quality control samples were made: one of 10,000, 1,500 and 200 ng/mL in DMSO, also starting from the DMSO working stock solution at 40,000 ng/mL.
The standard curve and quality controls were diluted a F100 in 80/20 H2O/MeCN (with internal standard) and analyzed on LC/MS-MS (API4000 or API5500).
The samples were analyzed on LC-MS with a flow rate of 0.6 mL/min. The mobile phase A was 0.1% formic acid in water and the mobile phase B was 0.1% formic acid in 90% acetonitrile and 10% of water. The sample was run under positive or negative ion spray on Pursuit C18-5 μm (2.0×20 mm) column, from Agilent. […]

Where [1] appears, read: Fasted State Simulated Gastric Fluid, 24 h.
Setting [2] is: Fasted State Simulated Intestine Fluid, 24 h.
Setting [3] is: Fasted State Simulated Gastric Fluid (FaSSGF), fassgf or other biorelevant, Fasted State Simulated Gastric Fluid, read-out: Tsol FaSSGF.
[4] abbreviates: Fasted State Simulated Intestine Fluid (FaSSIF), fassif, Fasted State Simulated Intestine Fluid, read-out: Tsol FaSSIF.
The mark [5] stands for this setting: Fed State Simulated Intestine Fluid (FeSSIF), fessif, Fed State Simulated Intestine Fluid, read-out: Tsol FeSSIF.

Values after ≈ are worked out from the molar mass of the structure shown. Values joined by “and” are separate entries in the source; they are usually repeats but may differ in a detail not shown here. Equal entries are not always repeated. Where two headings read alike, the source gives them in different places. Where only a bound is given, the exact number is not on record here.

On to `CNC(=O)c1cc2nc(CCC(C)(C)O)cn2cc1NC(=O)c1cccc(C(F)(F)F)n1` [Compound 2, 2-(3-hydroxy-3-methyl-butyl)-N-methyl-6-[[6-(trifluoromethyl)pyridine-2-carbonyl]amino]imidazo[1,2-a]pyridine-7-carboxamide], for which the “Tsol FaSSGF” value under setting [1] was 673 µg/mL and 969 µg/mL. Moreover, the “Tsol FaSSIF” value under setting [2] was 9.08 µg/mL and 9.24 µg/mL. In addition, the “Tsol FeSSIF” value (Fed State Simulated Intestine Fluid, 24 h) was 35.4 µg/mL and 25.8 µg/mL.

As to `COc1cc2nc(CCC(C)(C)O)cn2cc1NC(=O)c1cccc(C(F)(F)F)n1` [Compound 3, N-[2-(3-hydroxy-3-methyl-butyl)-7-methoxy-imidazo[1,2-a]pyridin-6-yl]-6-(trifluoromethyl)pyridine-2-carboxamide], the solubility thermodynamic at 24 h runs as follows: under setting [3], 880 µg/mL (≈ 2080 µM); under setting [4], 31.4 µg/mL (≈ 74.3 µM); under setting [5], 360 µg/mL (≈ 852 µM).

`COc1cc2nc(CCC(C)(C)O)cn2cc1NC(=O)c1cccn(C)c1=O` [Compound 4, N-[2-(3-hydroxy-3-methyl-butyl)-7-methoxy-imidazo[1,2-a]pyridin-6-yl]-1-methyl-2-oxo-pyridine-3-carboxamide]: the solubility thermodynamic at 24 h is 116 µg/mL (≈ 302 µM) under setting [3] and 125 µg/mL (≈ 325 µM) under setting [4].

`COc1cc2nc(CCC(C)(C)O)cn2cc1NC(=O)c1cccn(C2CC2)c1=O` [Compound 5, 1-cyclopropyl-N-[2-(3-hydroxy-3-methyl-butyl)-7-methoxy-imidazo[1,2-a]pyridin-6-yl]-2-oxo-pyridine-3-carboxamide]: the solubility thermodynamic at 24 h runs as follows: under setting [3], > 1000 µg/mL; under setting [4], 798 µg/mL (≈ 1940 µM); under setting [5], > 1000 µg/mL.

`COc1cc2nc(CCC(C)(C)O)cn2cc1NC(=O)c1cccc(C)n1` [Compound 6, N-[2-(3-hydroxy-3-methyl-butyl)-7-methoxy-imidazo[1,2-a]pyridin-6-yl]-6-methyl-pyridine-2-carboxamide]: the solubility thermodynamic at 24 h under setting [4] was 692 µg/mL (≈ 1880 µM).

Turning to `COc1cc2nc(CCC(C)(C)O)cn2cc1NC(=O)c1cccc(C(F)F)n1` [Compound 7, 6-(difluoromethyl)-N-[2-(3-hydroxy-3-methyl-butyl)-7-methoxy-imidazo[1,2-a]pyridin-6-yl]pyridine-2-carboxamide], the solubility thermodynamic at 24 h under setting [4] is 15.2 µg/mL (≈ 37.6 µM).

Turning to `COc1cccc(C(=O)Nc2cn3cc(CCC(C)(C)O)nc3cc2OC)n1` [Compound 8, N-[2-(3-hydroxy-3-methyl-butyl)-7-methoxy-imidazo[1,2-a]pyridin-6-yl]-6-methoxy-pyridine-2-carboxamide], under setting [4], the solubility thermodynamic at 24 h was 8.56 µg/mL (≈ 22.3 µM).

On to `COc1cc2nc(CCC(C)(C)O)cn2cc1NC(=O)c1cccn(C(F)F)c1=O` [Compound 12, 1-(difluoromethyl)-N-[2-(3-hydroxy-3-methyl-butyl)-7-methoxy-imidazo[1,2-a]pyridin-6-yl]-2-oxo-pyridine-3-carboxamide], for which the solubility thermodynamic at 24 h is > 1000 µg/mL under setting [3] and 188 µg/mL (≈ 447 µM) under setting [4].

On to `COc1cc2nc(CCC(C)(C)O)cn2cc1NC(=O)c1cccn(CC(F)(F)F)c1=O` [Compound 13, N-[2-(3-hydroxy-3-methyl-butyl)-7-methoxy-imidazo[1,2-a]pyridin-6-yl]-2-oxo-1-(2,2,2-trifluoroethyl)pyridine-3-carboxamide], for which the solubility thermodynamic at 24 h under setting [4] is 600 µg/mL (≈ 1330 µM).

On to `COc1cc2nc(CCC(C)(C)O)cn2cc1NC(=O)c1cccn(C2CCC2)c1=O` [Compound 18, 1-cyclobutyl-N-[2-(3-hydroxy-3-methyl-butyl)-7-methoxy-imidazo[1,2-a]pyridin-6-yl]-2-oxo-pyridine-3-carboxamide], for which the solubility thermodynamic at 24 h under setting [4] is 253 µg/mL (≈ 596 µM).

For the compound `COc1cc2nc(CCC(C)(C)O)cn2cc1NC(=O)c1cccc(C(C)(F)F)n1` [Compound 20, 6-(1,1-difluoroethyl)-N-[2-(3-hydroxy-3-methyl-butyl)-7-methoxy-imidazo[1,2-a]pyridin-6-yl]pyridine-2-carboxamide], the solubility thermodynamic at 24 h under setting [4] is 2.63 µg/mL (≈ 6.29 µM).

On to `CCn1cccc(C(=O)Nc2cn3cc(CCC(C)(C)O)nc3cc2OC)c1=O` [Compound 23, 1-ethyl-N-[2-(3-hydroxy-3-methyl-butyl)-7-methoxy-imidazo[1,2-a]pyridin-6-yl]-2-oxo-pyridine-3-carboxamide], for which the solubility thermodynamic at 24 h by setting is: under setting [3], > 1000 µg/mL; under setting [4], 459 µg/mL (≈ 1150 µM).

Consider `COc1cc2nc(CCS(C)(=O)=O)cn2cc1NC(=O)c1cccc(C(F)(F)F)n1` [Compound 24, N-[7-methoxy-2-(2-methylsulfonylethyl)imidazo[1,2-a]pyridin-6-yl]-6-(trifluoromethyl)pyridine-2-carboxamide], for which the solubility thermodynamic at 24 h under setting [3] was > 1000 µg/mL and the solubility thermodynamic at 24 h under setting [4] is 2.44 µg/mL (≈ 5.52 µM).

Regarding `COc1cc2nc(CCS(C)(=O)=O)cn2cc1NC(=O)c1cccn(C2CC2)c1=O` [Compound 25, 1-cyclopropyl-N-[7-methoxy-2-(2-methylsulfonylethyl)imidazo[1,2-a]pyridin-6-yl]-2-oxo-pyridine-3-carboxamide], the solubility thermodynamic at 24 h under setting [4] was 41.5 µg/mL (≈ 96.4 µM).

In the case of `CC(C)(O)CCc1cn2cc(NC(=O)c3cccc(C(F)(F)F)n3)c(C(N)=O)cc2n1` [Compound 31, 2-(3-hydroxy-3-methyl-butyl)-6-[[6-(trifluoromethyl)pyridine-2-carbonyl]amino]imidazo[1,2-a]pyridine-7-carboxamide], the solubility thermodynamic at 24 h is, setting by setting: under setting [3], > 1000 µg/mL; under setting [4], 2.97 µg/mL (≈ 6.82 µM); under setting [5], 4.4 µg/mL (≈ 10.1 µM).

For the compound `COCCc1cn2cc(NC(=O)c3cccc(C(F)(F)F)n3)c(OC)cc2n1` [Compound 35, N-[7-methoxy-2-(2-methoxyethyl)imidazo[1,2-a]pyridin-6-yl]-6-(trifluoromethyl)pyridine-2-carboxamide], the solubility thermodynamic at 24 h under setting [4] is < 30 µg/mL.

For `CCOc1c(NC(=O)c2cccn(C3CC3)c2=O)cn2cc(CCC(C)(C)O)nc2c1F` [Compound 37, 1-cyclopropyl-N-[7-ethoxy-8-fluoro-2-(3-hydroxy-3-methyl-butyl)imidazo[1,2-a]pyridin-6-yl]-2-oxo-pyridine-3-carboxamide], the solubility thermodynamic at 24 h was > 1000 µg/mL under setting [3] and 70.5 µg/mL (≈ 159 µM) under setting [4].

`CCOc1c(NC(=O)c2cccn(C)c2=O)cn2cc(CCC(C)(C)O)nc2c1F` [Compound 38, N-[7-ethoxy-8-fluoro-2-(3-hydroxy-3-methyl-butyl)imidazo[1,2-a]pyridin-6-yl]-1-methyl-2-oxo-pyridine-3-carboxamide]: the solubility thermodynamic at 24 h was > 1000 µg/mL under setting [3] and 96.8 µg/mL (≈ 232 µM) under setting [4].

Regarding `CCOc1c(NC(=O)c2cccn(C3CC3)c2=O)cn2cc(CCS(C)(=O)=O)nc2c1F` [Compound 39, 1-cyclopropyl-N-[7-ethoxy-8-fluoro-2-(2-methylsulfonylethyl)imidazo[1,2-a]pyridin-6-yl]-2-oxo-pyridine-3-carboxamide], the solubility thermodynamic at 24 h under setting [3] was > 1000 µg/mL and the solubility thermodynamic at 24 h under setting [5] was 20.9 µg/mL (≈ 45.2 µM). Besides, the “Tsol FaSSGF” value under setting [1] is listed as >1000, μg/mL. Under setting [2], the “Tsol FaSSIF” value is 7.3 µg/mL and 7.50 µg/mL.
